Tested on: MV-4-11 cells
Assay: Gene expression microarray analysis (Affymetrix PrimeView) and GSEA
Format: cell-based, human
Parameters: RFU PODN (11730768_x_at) / Fold change /veh PODN (11730768_x_at) / RFU LINC00158 (11744669_a_at) / Fold change /veh LINC00158 (11744669_a_at) / RFU DUSP10 (11751237_a_at) / Fold change /veh DUSP10 (11751237_a_at) / RFU ID3 (11757404_x_at) / Fold change /veh ID3 (11757404_x_at) / RFU PLEKHG5 (11737974_s_at) / Fold change /veh PLEKHG5 (11737974_s_at) / RFU LRRC4B (11730491_at) / Fold change /veh LRRC4B (11730491_at) / RFU GIMAP4 (11747438_a_at) / Fold change /veh GIMAP4 (11747438_a_at) / RFU KRT8 (11758183_x_at) / Fold change /veh KRT8 (11758183_x_at) / RFU CNN1 (11734310_a_at) / Fold change /veh CNN1 (11734310_a_at) / RFU VPS37D (11726825_at) / Fold change /veh VPS37D (11726825_at) / RFU C10orf10 (11716522_x_at) / Fold change /veh C10orf10 (11716522_x_at) / RFU KIR2DL2 /// KIR2DL4 /// KIR2DL5A /// KIR2DL5B /// KIR2DS1 /// KIR2DS2 /// KIR2DS3 /// KIR2DS4 /// KIR3DL3 /// KIR3DL3 /// KIR3DS1 (11738374_at) / Fold change /veh KIR2DL2 /// KIR2DL4 /// KIR2DL5A /// KIR2DL5B /// KIR2DS1 /// KIR2DS2 /// KIR2DS3 /// KIR2DS4 /// KIR3DL3 /// KIR3DL3 /// KIR3DS1 (11738374_at) / RFU C1QL1 (11718748_at) / Fold change /veh C1QL1 (11718748_at) / RFU TMPRSS4 (11747572_a_at) / Fold change /veh TMPRSS4 (11747572_a_at) / RFU HAMP (11756126_x_at) / Fold change /veh HAMP (11756126_x_at) / RFU RNFT2 (11725882_a_at) / Fold change /veh RNFT2 (11725882_a_at) / RFU NR4A2 (11747474_a_at) / Fold change /veh NR4A2 (11747474_a_at) / RFU ABCC12 (11746883_a_at) / Fold change /veh ABCC12 (11746883_a_at) / RFU TMEM136 (11760407_x_at) / Fold change /veh TMEM136 (11760407_x_at) / RFU CLDN22 /// WWC2 (11732394_at) / Fold change /veh CLDN22 /// WWC2 (11732394_at) / RFU HLA-DPB1 (11760878_x_at) / Fold change /veh HLA-DPB1 (11760878_x_at) / RFU SPINT1 (11716480_a_at) / Fold change /veh SPINT1 (11716480_a_at) / RFU GAP43 (11754022_s_at) / Fold change /veh GAP43 (11754022_s_at) / RFU A4GNT (11735810_at) / Fold change /veh A4GNT (11735810_at) / RFU PRB3 (11715151_x_at) / Fold change /veh PRB3 (11715151_x_at) / RFU TUBB4B (11761932_at) / Fold change /veh TUBB4B (11761932_at) / RFU CAPN14 (11732068_a_at) / Fold change /veh CAPN14 (11732068_a_at) / RFU TMCC2 (11721928_a_at) / Fold change /veh TMCC2 (11721928_a_at) / RFU IRGQ (11745062_a_at) / Fold change /veh IRGQ (11745062_a_at) / RFU FAM174B (11720279_a_at) / Fold change /veh FAM174B (11720279_a_at) / RFU TMPRSS4 (11748680_a_at) / Fold change /veh TMPRSS4 (11748680_a_at) / RFU FAM212B (11763350_a_at) / Fold change /veh FAM212B (11763350_a_at) / RFU PLEKHG5 (11743358_a_at) / Fold change /veh PLEKHG5 (11743358_a_at) / RFU ZSCAN30 (11745921_a_at) / Fold change /veh ZSCAN30 (11745921_a_at) / RFU CMKLR1 (11741424_a_at) / Fold change /veh CMKLR1 (11741424_a_at) / RFU LOC101060620 /// MAPK8IP1 (11723275_at) / Fold change /veh LOC101060620 /// MAPK8IP1 (11723275_at) / RFU SPTSSB (11747773_x_at) / Fold change /veh SPTSSB (11747773_x_at) / RFU PRSS12 (11739890_at) / Fold change /veh PRSS12 (11739890_at) / RFU BIN1 (11741810_x_at) / Fold change /veh BIN1 (11741810_x_at) / RFU WNT11 (11732464_a_at) / Fold change /veh WNT11 (11732464_a_at) / RFU C10orf10 (11716521_a_at) / Fold change /veh C10orf10 (11716521_a_at) / RFU C5orf56 (11738089_at) / Fold change /veh C5orf56 (11738089_at) / RFU CYB561 (11721691_x_at) / Fold change /veh CYB561 (11721691_x_at) / RFU ANKRD19P (11752326_a_at) / Fold change /veh ANKRD19P (11752326_a_at) / RFU OR2T12 /// OR2T33 /// OR2T8 (11738714_s_at) / Fold change /veh OR2T12 /// OR2T33 /// OR2T8 (11738714_s_at) / RFU VCAN (11748164_a_at) / Fold change /veh VCAN (11748164_a_at) / RFU JSRP1 (11732532_at) / Fold change /veh JSRP1 (11732532_at) / RFU KRTAP10-11 (11738290_x_at) / Fold change /veh KRTAP10-11 (11738290_x_at) / RFU MYO3A (11730013_a_at) / Fold change /veh MYO3A (11730013_a_at) / RFU EBF3 (11725865_a_at) / Fold change /veh EBF3 (11725865_a_at) / RFU CAMK2N1 (11719241_x_at) / Fold change /veh CAMK2N1 (11719241_x_at) / RFU C5orf56 (11738088_a_at) / Fold change /veh C5orf56 (11738088_a_at) / RFU OLFML3 (11715873_a_at) / Fold change /veh OLFML3 (11715873_a_at) / RFU LOC100653217 /// NTM (11731650_a_at) / Fold change /veh LOC100653217 /// NTM (11731650_a_at) / RFU MAPK11 (11762145_a_at) / Fold change /veh MAPK11 (11762145_a_at) / RFU FIZ1 (11724087_x_at) / Fold change /veh FIZ1 (11724087_x_at) / RFU OASL (11726364_x_at) / Fold change /veh OASL (11726364_x_at) / RFU SOX15 (11748057_x_at) / Fold change /veh SOX15 (11748057_x_at) / RFU CD79A (11719716_a_at) / Fold change /veh CD79A (11719716_a_at) / RFU HIST1H1D (11736915_at) / Fold change /veh HIST1H1D (11736915_at) / RFU CASKIN2 (11723855_a_at) / Fold change /veh CASKIN2 (11723855_a_at) / RFU LOC730098 (11760151_x_at) / Fold change /veh LOC730098 (11760151_x_at) / RFU OR4N2 (11742367_at) / Fold change /veh OR4N2 (11742367_at) / RFU PRRT2 (11749266_a_at) / Fold change /veh PRRT2 (11749266_a_at) / RFU SNX32 (11753110_a_at) / Fold change /veh SNX32 (11753110_a_at) / RFU CDHR5 (11726645_a_at) / Fold change /veh CDHR5 (11726645_a_at) / RFU RCAN1 (11760418_a_at) / Fold change /veh RCAN1 (11760418_a_at) / RFU FAM167A (11723789_a_at) / Fold change /veh FAM167A (11723789_a_at) / RFU FAM26E (11764081_at) / Fold change /veh FAM26E (11764081_at) / RFU ISYNA1 (11749810_s_at) / Fold change /veh ISYNA1 (11749810_s_at) / RFU ACY1 (11761880_at) / Fold change /veh ACY1 (11761880_at) / RFU 11764098_at / Fold change /veh 11764098_at / RFU SAMD14 (11745864_x_at) / Fold change /veh SAMD14 (11745864_x_at) / RFU NPB (11741838_a_at) / Fold change /veh NPB (11741838_a_at) / RFU TMPRSS6 (11731388_a_at) / Fold change /veh TMPRSS6 (11731388_a_at) / RFU KRTAP10-2 (11738614_at) / Fold change /veh KRTAP10-2 (11738614_at) / RFU ARHGAP8 /// PRR5-ARHGAP8 (11727945_x_at) / Fold change /veh ARHGAP8 /// PRR5-ARHGAP8 (11727945_x_at) / RFU KRTAP5-7 /// NADSYN1 (11734609_at) / Fold change /veh KRTAP5-7 /// NADSYN1 (11734609_at) / RFU RASL12 (11751679_a_at) / Fold change /veh RASL12 (11751679_a_at) / RFU CDKN2B (11736163_a_at) / Fold change /veh CDKN2B (11736163_a_at) / RFU PRF1 (11729649_at) / Fold change /veh PRF1 (11729649_at) / RFU, ZNF638 /// ZNF638-IT1 / Fold change vs veh, ZNF638 /// ZNF638-IT1 / RFU, PANK3 / Fold change vs veh, PANK3 / RFU, SH3YL1 / Fold change vs veh, SH3YL1 / RFU, ZEB2 / Fold change vs veh, ZEB2 / RFU, NRIP1 / Fold change vs veh, NRIP1 / RFU, PTTG1IP / Fold change vs veh, PTTG1IP / RFU, CAPN2 / Fold change vs veh, CAPN2 / RFU, MED14 / Fold change vs veh, MED14 / RFU, SNORA58 / Fold change vs veh, SNORA58 / RFU, C1orf63 / Fold change vs veh, C1orf63 / RFU, LRRFIP1 / Fold change vs veh, LRRFIP1 / RFU, NDUFAF7 / Fold change vs veh, NDUFAF7 / RFU, SLC12A2 / Fold change vs veh, SLC12A2 / RFU, IBTK / Fold change vs veh, IBTK / RFU, ESF1 / Fold change vs veh, ESF1 / Fold change vs veh, TMEM50B / RFU, TAOK1 / Fold change vs veh, TAOK1 / RFU, ACBD3 / Fold change vs veh, ACBD3 / RFU, TMA16 / Fold change vs veh, TMA16 / RFU, RWDD3 / Fold change vs veh, RWDD3 / RFU, BCAT1 / Fold change vs veh, BCAT1 / RFU, EDEM3 / Fold change vs veh, EDEM3 / RFU, TMEM33 / Fold change vs veh, TMEM33 / RFU, WDR75 / Fold change vs veh, WDR75 / RFU, AHCTF1 / Fold change vs veh, AHCTF1 / RFU, TFRC / Fold change vs veh, TFRC / RFU, ZDHHC17 / Fold change vs veh, ZDHHC17 / RFU, NOM1 / Fold change vs veh, NOM1 / RFU, ARL8B / Fold change vs veh, ARL8B / RFU, ZBTB11 / Fold change vs veh, ZBTB11 / RFU, TAMM41 / Fold change vs veh, TAMM41 / RFU, KIAA1704 /// LOC100996395 / Fold change vs veh, KIAA1704 /// LOC100996395 / RFU, ING1 / Fold change vs veh, ING1 / RFU, TRMT61B / Fold change vs veh, TRMT61B / RFU, FUBP3 / Fold change vs veh, FUBP3 / RFU, TP53 / Fold change vs veh, TP53 / RFU, TNKS2 / Fold change vs veh, TNKS2 / RFU, ZFP14 / Fold change vs veh, ZFP14 / RFU, ACTR2 / Fold change vs veh, ACTR2 / RFU, PPP3R1 / Fold change vs veh, PPP3R1 / RFU, PIK3R1 / Fold change vs veh, PIK3R1 / RFU, HNRNPA1 / Fold change vs veh, HNRNPA1 / RFU, RNF170 / Fold change vs veh, RNF170 / RFU, ZNF28 / Fold change vs veh, ZNF28 / RFU, RNGTT / Fold change vs veh, RNGTT / RFU, OGT / Fold change vs veh, OGT / RFU, BRD1 / Fold change vs veh, BRD1 / RFU, MARS / Fold change vs veh, MARS / RFU, ZNF655 / Fold change vs veh, ZNF655 / RFU, FAHD1 / Fold change vs veh, FAHD1 / RFU, BDP1 / Fold change vs veh, BDP1 / RFU, LRRCC1 / Fold change vs veh, LRRCC1 / RFU, ARID1A / Fold change vs veh, ARID1A / RFU, ZNF146 / Fold change vs veh, ZNF146 / RFU, ZNF330 / Fold change vs veh, ZNF330 / RFU, GPN3 / Fold change vs veh, GPN3 / RFU, C9orf123 / Fold change vs veh, C9orf123 / RFU, N4BP2L2 / Fold change vs veh, N4BP2L2 / RFU, ARFIP1 / Fold change vs veh, ARFIP1 / RFU, FAM179B / Fold change vs veh, FAM179B / RFU, BCL10 / Fold change vs veh, BCL10 / RFU, UHRF1BP1L / Fold change vs veh, UHRF1BP1L / RFU, BET1 / Fold change vs veh, BET1 / RFU, CNOT2 / Fold change vs veh, CNOT2 / RFU, ZNF268 / Fold change vs veh, ZNF268 / Fold change vs veh, ZNF507 / RFU, DGCR2 / Fold change vs veh, DGCR2 / RFU, WDSUB1 / Fold change vs veh, WDSUB1 / Fold change vs veh, HSP90B1 /// MIR3652 / RFU, ADSS / Fold change vs veh, ADSS / RFU, GK / Fold change vs veh, GK / RFU, ZNF148 / Fold change vs veh, ZNF148 / RFU, TAF9 / Fold change vs veh, TAF9 / RFU, SLC1A5 / Fold change vs veh, SLC1A5 / RFU, SLMO2 / Fold change vs veh, SLMO2 / RFU, ABCC4 / Fold change vs veh, ABCC4 / RFU, LOC101060439 /// RAP1B / Fold change vs veh, LOC101060439 /// RAP1B / RFU, RFX7 / Fold change vs veh, RFX7 / RFU, GTPBP10 / Fold change vs veh, GTPBP10 / RFU, CNEP1R1 / Fold change vs veh, CNEP1R1 / RFU, BIVM-ERCC5 /// ERCC5 / Fold change vs veh, BIVM-ERCC5 /// ERCC5 / RFU, ILF3 / Fold change vs veh, ILF3 / RFU 11762660_at / Fold change /veh 11762660_at / RFU VCAN (11757783_s_at) / Fold change /veh VCAN (11757783_s_at) / RFU DDX43 (11728927_at) / Fold change /veh DDX43 (11728927_at) / RFU KRT8 (11758188_x_at) / Fold change /veh KRT8 (11758188_x_at) / RFU NKD1 (11759106_at) / Fold change /veh NKD1 (11759106_at) / RFU SRD5A1 (11742802_a_at) / Fold change /veh SRD5A1 (11742802_a_at) / RFU TPSAB1 /// TPSB2 (11721975_s_at) / Fold change /veh TPSAB1 /// TPSB2 (11721975_s_at) / RFU GSTM3 (11746129_a_at) / Fold change /veh GSTM3 (11746129_a_at) / RFU IL23R (11737362_x_at) / Fold change /veh IL23R (11737362_x_at) / RFU TMEM51 (11727254_a_at) / Fold change /veh TMEM51 (11727254_a_at) / RFU PIWIL2 (11732686_x_at) / Fold change /veh PIWIL2 (11732686_x_at) / RFU ORM1 (11744905_x_at) / Fold change /veh ORM1 (11744905_x_at) / RFU CCDC152 (11743942_at) / Fold change /veh CCDC152 (11743942_at) / RFU ECM1 (11717891_a_at) / Fold change /veh ECM1 (11717891_a_at) / RFU IL23R (11748794_a_at) / Fold change /veh IL23R (11748794_a_at) / RFU TNFAIP8L3 (11732012_x_at) / Fold change /veh TNFAIP8L3 (11732012_x_at) / RFU MBOAT4 (11741988_at) / Fold change /veh MBOAT4 (11741988_at) / RFU 11764193_at / Fold change /veh 11764193_at / RFU TMEM53 (11763286_at) / Fold change /veh TMEM53 (11763286_at) / RFU MAGEB2 (11727129_at) / Fold change /veh MAGEB2 (11727129_at) / RFU TMEM200A (11744735_a_at) / Fold change /veh TMEM200A (11744735_a_at) / RFU CCDC152 (11751479_a_at) / Fold change /veh CCDC152 (11751479_a_at) / RFU FAM211A (11726209_a_at) / Fold change /veh FAM211A (11726209_a_at) / RFU RGS16 (11746705_a_at) / Fold change /veh RGS16 (11746705_a_at) / RFU VCAN (11755009_s_at) / Fold change /veh VCAN (11755009_s_at) / RFU RHOB (11743442_s_at) / Fold change /veh RHOB (11743442_s_at) / RFU RGS16 (11720943_a_at) / Fold change /veh RGS16 (11720943_a_at) / RFU RGS16 (11720944_at) / Fold change /veh RGS16 (11720944_at) / RFU, VPS4B / Fold change vs veh, VPS4B / RFU, CREB1 / Fold change vs veh, CREB1 / RFU, DNAJC13 / Fold change vs veh, DNAJC13 / RFU, GNAQ / Fold change vs veh, GNAQ / RFU, CDK5R1 / Fold change vs veh, CDK5R1 / RFU, ZRANB3 / Fold change vs veh, ZRANB3 / RFU, CUL4A / Fold change vs veh, CUL4A / RFU, CCNY / Fold change vs veh, CCNY / RFU, UFL1 / Fold change vs veh, UFL1 / RFU, COG3 / Fold change vs veh, COG3 / RFU, DIAPH2 / Fold change vs veh, DIAPH2 / RFU, SKA2 / Fold change vs veh, SKA2 / RFU, AFF3 / Fold change vs veh, AFF3 / RFU, LMF1 / Fold change vs veh, LMF1 / RFU, IPO11 / Fold change vs veh, IPO11 / RFU, DFFB / Fold change vs veh, DFFB / RFU, FOXP1 / Fold change vs veh, FOXP1 / RFU, CARD8 / Fold change vs veh, CARD8 / RFU, STRN3 / Fold change vs veh, STRN3 / RFU, ADK / Fold change vs veh, ADK / RFU, RASSF2 / Fold change vs veh, RASSF2 / RFU, WIPF1 / Fold change vs veh, WIPF1 / RFU, LARP1B / Fold change vs veh, LARP1B / RFU, RASA1 / Fold change vs veh, RASA1 / RFU, RB1 / Fold change vs veh, RB1 / RFU, PPFIA1 / Fold change vs veh, PPFIA1 / RFU, MAT2A / Fold change vs veh, MAT2A / RFU, CCT5 / Fold change vs veh, CCT5 / RFU, WDR92 / Fold change vs veh, WDR92 / RFU, CUX1 / Fold change vs veh, CUX1 / RFU, TTC7A / Fold change vs veh, TTC7A / RFU, TMEM135 / Fold change vs veh, TMEM135 / RFU, DEPTOR / Fold change vs veh, DEPTOR / RFU, CPM / Fold change vs veh, CPM / RFU, DNAJB6 / Fold change vs veh, DNAJB6 / RFU, CACNA2D3 / Fold change vs veh, CACNA2D3 / RFU, DTX4 / Fold change vs veh, DTX4 / RFU, TFCP2 / Fold change vs veh, TFCP2 / RFU, GMCL1 /// GMCL1P1 / Fold change vs veh, GMCL1 /// GMCL1P1 / RFU, AEBP2 / Fold change vs veh, AEBP2 / RFU, SNHG1 /// SNORD22 /// SNORD25 /// SNORD26 /// SNORD27 /// SNORD28 /// SNORD29 /// SNORD31 / Fold change vs veh, SNHG1 /// SNORD22 /// SNORD25 /// SNORD26 /// SNORD27 /// SNORD28 /// SNORD29 /// SNORD31 / Fold change (Aza/veh), C12orf56 (ProbeSet 11735607_a_at) / Fold change (ACY-1035/veh), C12orf56 (ProbeSet 11735607_a_at) / Fold change (Aza/veh), FGFR1OP (ProbeSet 11751329_s_at) / Fold change (ACY-1035/veh), FGFR1OP (ProbeSet 11751329_s_at) / Fold change (Aza/veh), VPS36 (ProbeSet 11739960_a_at) / Fold change (ACY-1035/veh), VPS36 (ProbeSet 11739960_a_at) / RFU SYPL1 (11715823_x_at) / Fold change /veh SYPL1 (11715823_x_at) / RFU IGFBP7 (11715501_s_at) / Fold change /veh IGFBP7 (11715501_s_at) / RFU REEP3 (11722064_at) / Fold change /veh REEP3 (11722064_at) / RFU IGLL1 (11728026_x_at) / Fold change /veh IGLL1 (11728026_x_at): dose or concentration left out as unconfirmed
Conditions: ProbeSet 11749781_s_at; LIST B

**Q.** Which “RFU, BCAT1” value does the source give for Nc1ncn([C@@H]2O[C@H](CO)[C@@H](O)[C@H]2O)c(=O)n1 [azacitidine] here?
**A.** The value was 11.21 RFU.

Source: PMC5218480 (PLoS ONE, 2017)
